# In patent US8309583B2, “Desferrioxamine conjugates, derivatives and analogues” (priority 2007, dated 2012):
# Where a name gives a salt, the structure may show the parent alone.
# Experiments:
# [1] = system: SK-N-MC neuroepithelioma cells; experiment: 59Fe efflux from 59Fe-prelabeled SK-N-MC cells; assay type: cell-based; conditions: compound 50 μM, 3 h, 37° C.; SK-N-MC cells prelabeled 3 h with 59Fe-loaded transferrin (0.75 μM)
# SK-N-MC cells = experiment: 59Fe uptake into SK-N-MC cells from 59Fe-loaded transferrin; assay type: cell-based; conditions: comparison with DFOB
# [2] = oral; cited from earlier work
# [3] = RP-HPLC relative hydrophobicity / logP correlation; conditions: C18 column, H2O/ACN 0.1% TFA gradient, free or Fe(III)-loaded ligand
# [4] = standards used in RP-HPLC logP correlation; cited from earlier work
smiles,measurement,setting,value
"CC(=O)N(O)CCCCCNC(=O)CCC(=O)N(O)CCCCCNC(=O)CCC(=O)N(O)CCCCCNC(=O)COc1ccc(C)cc1 [4-methylphenoxyacetate-DFOB, 4-methylphenoxyacetate-desferrioxamine B]",Fe efflux (59Fe released from prelabeled cells),[1],31.6%
same,"competition with 59Fe-loaded transferrin for 59Fe, preventing accumulation of Fe within the cell",SK-N-MC cells,more efficient
"CC(=O)N(O)CCCCCNC(=O)CCC(=O)N(O)CCCCCNC(=O)CCC(=O)N(O)CCCCCNC(=O)CCCC[C@@H]1SC[C@@H]2NC(=O)N[C@@H]21 [Biotin-DFOB, biotin-desferrioxamine B]",Fe efflux (59Fe released from prelabeled cells),[1],6.6%
"CC(=O)N(O)CCCCCNC(=O)CCC(=O)N(O)CCCCCNC(=O)CCC(=O)N(O)CCCCCN [DFOB, desferrioxamine B, reference compound]",Fe efflux (59Fe released from prelabeled cells),[1],10.8%
"CC(=O)N(O)CCCCCNC(=O)CCC(=O)N(O)CCCCCNC(=O)CCC(=O)N(O)CCCCCN [Desferal, mesylate salt of desferrioxamine B]",fraction of an orally administered dose absorbed,[2],15%
"CC(=O)N(O)CCCCCNC(=O)CCC(=O)N(O)CCCCCNC(=O)CCC(=O)N(O)CCCCCNC(=O)C12CC3CC(CC(C3)C1)C2 [adamantane-DFOB, adamantane-desferrioxamine B]",relative hydrophobicity / water solubility from RP-HPLC retention,[3],least water soluble
same,relative hydrophobicity / water solubility from RP-HPLC retention,[3]; listed as adamantane-desferrioxamine B,significantly more hydrophobic
same,Fe efflux (59Fe released from prelabeled cells),[1],28%
same,"competition with 59Fe-loaded transferrin for 59Fe, preventing accumulation of Fe within the cell",SK-N-MC cells,more efficient
"CC(=O)N(O)CCCCCNC(=O)CCC(=O)N(O)CCCCCNC(=O)CCC(=O)N(O)CCCCCNC(=O)c1ccc2c(c1)OCCOCCOCCOCCO2 [benzo-15-crown-5-4-carboxylate-DFOB, benzo-15-crown-5-4-carboxylate-desferrioxamine B]",Fe efflux (59Fe released from prelabeled cells),[1],9.6%
Oc1cccc2ccccc12 [α-naphthol],logP,[4],2.7
